Laboratory results from patent publication US9169203B2, “Sulfoxide-based surfactants” (Novus International Inc., priority 2012, dated 2015).

Tests used:
[1] = Critical micelle concentration (CMC), Wilhelmy plate method; format: physicochemical; details: in water at 25° C. and atmospheric pressure
Procedure: (§1) To determine whether the sulfoxide-based compounds synthesized in Examples 1-9 had surfactant properties, the critical micelle concentration (CMC), surface tension, and solubility were determined. The Wilhelmy plate method was used to determine the equilibrium surface or interfacial tension at an air-liquid interface. A Cahn DCA 322 high-sensitivity balance was used to perform the measurement. Glass slides manufactured by Corning with a width of 22 mm and thickness of 0.1 mm were used as probes; the motor speed was set to be 160 μm/sec. […] The measured force was converted to surface tension using the Wilhelmy equation. The CMC was calculated according to standard procedures.
(§2) The following compounds were tested: (1) hexyl 2-hydroxy-4-[…] (R6SO); (2) octyl 2-hydroxy-4-(methylsulfinyl)butanoate (R8SO); (3) a mixture of 70 wt % R8SO and 30 wt % decyl 2-hydroxy-4-(methylsulfinyl)butanoate (R10SO); (4) a mixture of 70 wt % R8SO and 30 wt % dodecyl 2-hydroxy-4-(methylsulfinyl)butanoate (R12SO); (5) 2-hydroxy-4-(methylsulfinyl)-N-octylbutanamide (R8NHSO); (6) a mixture of 60 wt % R8NHSO and 40 wt % 2-hydroxy-4-(methylsulfinyl)-N-decylbutanamide (R10NHSO); (7) a mixture of 75 wt % R8NHSO and 25 wt % 2-hydroxy-4-(methylsulfinyl)-N-dodecylbutanamide (R12NHSO); as well as the commercially available nonionic surfactants (8) Igepal® CO-630, a branched nonylphenol ethoxylate, and two alkyl ethylene oxides, (9) hexaethylene glycol monododecyl ether (C12E6) and (10) hexaethylene glycol monodecyl ether (C10E6).

[2] = Surface tension at air-liquid interface at CMC, Wilhelmy plate method; format: physicochemical; details: 25° C. and atmospheric pressure
Procedure: as §1, §2

Solubility in water = format: physicochemical; details: in water at 25° C. and atmospheric pressure
Procedure: as §1, §2

Daphnia = Daphnia acute immobilization test (OECD 202); format: in vivo; details: at 48 hr
Procedure: (§3) The potential hazards of the sulfoxide-based compounds were examined by evaluating the toxicity of R8SO in three standard bioassays (i.e., fresh water algae growth inhibition test, Daphnia acute immobilization test, and fresh water fish acute toxicity test).
The Daphnia acute immobilization test was performed according to the OECD 202 guidelines. Briefly, young daphnids, ages less than 24 hours at the start of the test, were exposed to the test substances at a range of concentrations for a period of 48 hours. Generally, at least 20 animals, preferably divided into four groups of five animals each, were tested for each test concentration and for the controls (i.e., no test substance). The Daphnia were not fed during the test. At least 2 mL of test solution were provided for each animal. Temperatures were held between 18 and 22° C., and for each single test the temperature was within ±1° C. Immobilization was recorded at 24 hours and 48 hours, and compared to control values. Those animals that could not swim within 15 seconds after gentle agitation of the test container were considered to be immobile.

[3] = test system: fresh water fish (i.e., fathead minnows); experiment: Fresh water fish acute toxicity test (OECD 203); format: in vivo; details: at 96 hr
Procedure: as §3
The fresh water fish acute toxicity test was conduced according to OECD 203 guidelines. For this test, fresh water fish (i.e., fathead minnows) were exposed to a series of concentrations of the test substances for a period of 96 hours. At least seven fishes were used at each test concentration and in the controls. Mortalities were recorded at 24, 48, 72, and 96 hours. Fish were considered dead if there was no visible movement (e.g. gill movements) and if touching of the caudal peduncle produced no reaction. The mortality counts were used to determine LC50, the concentration that killed 50% of the fish.

fresh water algae = experiment: Fresh water algae growth inhibition test (OECD 201); format: cell-based; details: at 72 hr
Procedure: as §3
The fresh water algae growth inhibition test was conducted according to OECD 201 guidelines. Briefly, exponentially growing fresh water algae were exposed to several concentrations of the test substances in batch cultures over a period of 72 hours. The cultures were allowed unrestricted exponential growth under nutrient sufficient conditions and continuous fluorescent illumination. Three replicates at each test concentration were used. Growth was monitored over time and compared to the average growth of control cultures (with no test substances). Growth and growth inhibition are quantified from measurements of the algal biomass as a function of time.

Row | SMILES | CMC [1] | Surface Tension at CMC [2] | Solubility (Solubility in water) | EC50 (concentration at which 50% of the animals were immobilized) (Daphnia) | LC50 (concentration that killed 50% of the fish) [3] | EC50 (50 percent reduction in growth relative to the control) (fresh water algae)
1 | CCCCCCCCCCOCCOCCOCCOCCOCCOCCO [Example C10E6, hexaethylene glycol monodecyl ether, reference compound] | 0.90 mM | 42 mN/m | – | – | – | –
2 | CCCCCCCCCCCCOCCOCCOCCOCCOCCOCCO [Example C12E6, hexaethylene glycol monododecyl ether, reference compound] | 0.087 mM | 41 mN/m | – | – | – | –
3 | CCCCCCOC(=O)C(O)CC[S+](C)[O-] (stereo not shown) [Example R6SO, hexyl 2-hydroxy-4-(methylsulfinyl)butanoate] | 120.9 mM | 33 mN/m | >50% (wt/wt total) | – | – | –
4 | CCCCCCCCNC(=O)C(O)CC[S+](C)[O-] (stereo not shown) [Example R8NHSO, 2-hydroxy-4-(methylsulfinyl)-N-octylbutanamide] | 10.3 mM | 29 mN/m | >50% (wt/wt total) | – | – | –
5 | CCCCCCCCOC(=O)C(O)CC[S+](C)[O-] (stereo not shown) [Example R8SO, octyl 2-hydroxy-4-(methylsulfinyl)butanoate] | 11.7 mM | 29 mN/m | >50% (wt/wt total) | 79 ppm | 148 ppm | 175 ppm
